Experiments:
Assay in all cases: relative viability (nuclei count vs DMSO), 5 days (fraction); higher = more cells survive
BAM7 + Phenformin = compound: CCOC1=CC=CC=C1N=NC2=C(NN(C2=O)C3=NC(=CS3)C4=CC=CC=C4)C [BAM7] + N=C(N)NC(=N)NCCc1ccccc1 [Phenformin] (partner 250 µM)
How it was run: (§1)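 Lung cancer cell lines were pin-tool dosed in 1536-well plates on the day after seeding, with either a lone drug or a fixed anchor-drug dose plus five library-drug doses (not always all listed) in √10 steps. Nuclei were counted on 4× images after 5 days. Relative viability is the ratio of treated-well to vehicle-well nuclei counts, with each value a median of duplicate plates.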

[1] = compound: CCn1c(-c2nonc2N)nc2c(C#CC(C)(C)O)ncc(OC[C@H]3CCCNC3)c21 + CS(=O)(=O)CCNCc1ccc(-c2ccc3ncnc(Nc4ccc(OCc5cccc(F)c5)c(Cl)c4)c3c2)o1 [Lapatinib] (partner 2 µM)
How it was run: as §1

BAM7 + Vorinostat = compound: CCOC1=CC=CC=C1N=NC2=C(NN(C2=O)C3=NC(=CS3)C4=CC=CC=C4)C [BAM7] + O=C(CCCCCCC(=O)Nc1ccccc1)NO [Vorinostat] (partner 1 µM)
How it was run: as §1

[2] = compound: CCn1c(-c2nonc2N)nc2c(C#CC(C)(C)O)ncc(OC[C@H]3CCCNC3)c21 + O=C(CCCCCCC(=O)Nc1ccccc1)NO [Vorinostat] (partner 1 µM)
How it was run: as §1

Cell Line	relative viability (BAM7 + Phenformin; first compound 0.5 µM)	relative viability (BAM7 + Phenformin; first compound 5 µM)	relative viability (BAM7 + Phenformin; first compound 15.81 µM)	relative viability (BAM7 + Phenformin; first compound 50 µM)	relative viability ([1]; first compound 0.01 µM)	relative viability ([1]; first compound 0.03162 µM)	relative viability ([1]; first compound 0.1 µM)	relative viability ([1]; first compound 0.3162 µM)	relative viability ([1]; first compound 1 µM)	relative viability (BAM7 + Vorinostat; first compound 0.5 µM)	relative viability (BAM7 + Vorinostat; first compound 5 µM)	relative viability (BAM7 + Vorinostat; first compound 15.81 µM)	relative viability (BAM7 + Vorinostat; first compound 50 µM)	relative viability ([2]; first compound 0.01 µM)	relative viability ([2]; first compound 0.1 µM)	relative viability ([2]; first compound 0.3162 µM)	relative viability ([2]; first compound 1 µM)	relative viability ([2]; first compound 0.03162 µM)
NCI-H596	0.751	0.804	0.705	0.811	0.935	0.954	0.92	0.901	0.986	0.646	0.716	0.558	0.7	0.569	0.553	0.58	0.633	
NCI-H727	0.42		0.576	0.603	0.796	0.856	0.593	0.762	0.66	1.42	1.09	0.942	0.839	1.28	1.19	1.09	1.26	1.12
H3255	0.353	0.343	0.386	0.384	0.259	0.202	0.217	0.276	0.228	0.819	0.763	0.733	0.811	0.832	0.815	0.693	0.448	0.704
SK-MES-1	0.721	0.724	0.607	0.659	0.46	0.425	0.507	0.424	0.406	1.04	1.06	1.05	1.04	1.08	1.1	1.05	1.1	1.1
NCI-H1437	0.263	0.23	0.3	0.275	0.841	0.821	0.877	0.719	0.795	0.734	0.669	0.616	0.677	0.812	0.955	0.791	0.952	0.794
LU99A	0.802	0.819	0.896	0.94	0.874	1.07	0.869	0.865	0.818	0.512	0.54	0.488	0.553	0.52	0.46	0.453	0.571	0.531
HCC-827	0.397	0.373	0.453	0.362	0.175	0.219	0.191	0.173	0.217	0.806	1	1.01	0.789	0.86	0.831	0.76	0.834	0.866
LK-2	0.507	0.389	0.466	0.636	0.998	1.01	0.668	0.697	0.926	0.341	0.346	0.343	0.353	0.239	0.289	0.316	0.321	0.291
HCC-366	0.576	0.605	0.668	0.594	0.967	1.02	0.953	1.03	1.09	0.301	0.28	0.356	0.344	0.278	0.329	0.367	0.372	0.3
BEN	0.257	0.248	0.286	0.294	0.608	0.717	0.444	0.637	0.626	0.573	0.61	0.523	0.544	0.635	0.569	0.56	0.667	0.617
NCI-H23	0.816	0.76	0.86	0.856	1.07	1.05	1.14	1.17	0.776	0.559	0.674	0.629	0.792	0.559	0.626	0.558	0.531	0.591
NCI-H1395	0.444	0.522	0.446	0.538	0.815	0.842	0.858	0.769	0.869	0.662	0.678	0.645	0.939	0.575	0.597	0.525	0.52	0.517
201T	0.465	0.464	0.474	0.483	0.991	1.06	1.05	1.05	1.01	0.797	0.78	0.716	0.71	0.952	0.919	0.894	0.958	0.995
NCI-H2170	0.385	0.362	0.388	0.371	0.283	0.254	0.266	0.261	0.302	0.842	0.731	0.651	0.601	0.841	0.836	0.699	0.85	0.764
NCI-H460	0.521	0.573	0.513	0.534	0.949	1.14	1.02	0.862	0.775	0.657	0.634	0.611	0.647	0.722	0.757	0.64	0.767	0.857
NCI-H661	0.241	0.258	0.264	0.298	0.505	0.539	0.249	0.502	0.489	0.82	0.843	0.784	0.774	0.787	0.788	0.742	0.735	0.788
HCC-15	0.506	0.434	0.496	0.471	0.868	0.824	0.865	0.808	0.795	0.703	0.729	0.605	0.667	0.97	0.894	0.769	0.881	0.858
ABC-1	0.223	0.237	0.247	0.266	1.28	1.26	1	1.13	1.15	1.04	1.45	0.983	1.18	1.03	1.06	1.08	1.23	
